Results published in PubChem BioAssay AID248 (DTP/NCI, 2004).
Values joined by “and” are separate entries in the source; they are usually repeats but may differ in a detail not shown here. Identical values can stand only once. Toxic doses and inconclusive results are not listed.

Test system: L1210 leukemia ip in BDF1 mice, survival T/C
Assay: NCI In Vivo Anticancer Drug Screen. Data for tumor model L1210 Leukemia (intraperitoneal) in B6D2F1 (BDF1) mice
Settings: endpoint: mean survival time, higher = longer survival
Outline: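 Each compound was tested against a transplantable tumor grown in mice. The endpoint was survival, with treated animals benchmarked against vehicle controls as a simple ratio.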

[1] = dose: 100.0 mg/kg/injection, schedule: Q01DX009 (ip), vehicle: saline with Tween-80
[2] = dose: 200.0 mg/kg/injection, schedule: Q01DX009 (ip), vehicle: saline with Tween-80
[3] = dose: 100.0 mg/kg/injection, schedule: Q04DX002 (ip), vehicle: Klucel (hydroxypropylcellulose) (HPC)
[4] = dose: 200.0 mg/kg/injection, schedule: Q04DX002 (ip), vehicle: Klucel (hydroxypropylcellulose) (HPC)
[5] = dose: 400.0 mg/kg/injection, schedule: Q04DX002 (ip), vehicle: Klucel (hydroxypropylcellulose) (HPC)
[6] = dose: 100.0 mg/kg/injection, schedule: Q01DX001 (ip), vehicle: saline
[7] = dose: 200.0 mg/kg/injection, schedule: Q01DX001 (ip), vehicle: saline
[8] = dose: 100.0 mg/kg/injection, schedule: Q01DX009 (ip), vehicle: Klucel (hydroxypropylcellulose) (HPC)
[9] = dose: 100.0 mg/kg/injection, schedule: Q04DX003 (ip), vehicle: Klucel (hydroxypropylcellulose) (HPC)
[10] = dose: 200.0 mg/kg/injection, schedule: Q01DX009 (ip), vehicle: Klucel (hydroxypropylcellulose) (HPC)
[11] = dose: 400.0 mg/kg/injection, schedule: Q01DX009 (ip), vehicle: Klucel (hydroxypropylcellulose) (HPC)
[12] = dose: 100.0 mg/kg/injection, schedule: Q01DX001 (ip), vehicle: carboxymethylcellulose (CMC)
[13] = dose: 200.0 mg/kg/injection, schedule: Q01DX001 (ip), vehicle: carboxymethylcellulose (CMC)
[14] = dose: 400.0 mg/kg/injection, schedule: Q01DX001 (ip), vehicle: carboxymethylcellulose (CMC)

`CC(=O)Nc1ccc(/C=N/Nc2c([N+](=O)[O-])cc(C(F)(F)F)cc2[N+](=O)[O-])cc1` was tested, and the T/C [1] was 100 % of control and the T/C [2] was 96 % of control.

With `O=P(N1CCCCC1)(N1CC1)N1CC1` the T/C (dose: 0.5 mg/kg/injection, schedule: Q01DX Z (ip), vehicle: saline) was 117 % of control, the T/C (dose: 2.0 mg/kg/injection, schedule: Q01DX Z (ip), vehicle: saline) was 158 % of control and the T/C (dose: 3.8 mg/kg/injection, schedule: Q01DX015 (ip), vehicle: saline) was 106 % of control. For the same compound, the T/C (dose: 4.0 mg/kg/injection, schedule: Q01DX011 (ip), vehicle: saline) was 113 % of control, the T/C (dose: 5.0 mg/kg/injection, schedule: Q01DX001 (ip), vehicle: saline) was 107 % of control and the T/C (dose: 6.0 mg/kg/injection, schedule: Q01DX Z (ip), vehicle: saline) was 202 % of control. The T/C (dose: 7.5 mg/kg/injection, schedule: Q01DX015 (ip), vehicle: saline) was 124 % of control, the T/C (dose: 8.0 mg/kg/injection, schedule: Q01DX011 (ip), vehicle: saline) was 150 % of control and the T/C (dose: 9.0 mg/kg/injection, schedule: Q01DX Z (ip), vehicle: saline) was 94 % of control. The T/C (dose: 10.0 mg/kg/injection, schedule: Q01DX001 (ip), vehicle: saline) was 100 % of control, the T/C (dose: 13.5 mg/kg/injection, schedule: Q01DX Z (ip), vehicle: saline) was 94 % of control and the T/C (dose: 15.0 mg/kg/injection, schedule: Q01DX011 (ip), vehicle: saline) was 95 % of control. For the same compound, the T/C (dose: 20.0 mg/kg/injection, schedule: Q01DX001 (ip), vehicle: saline) was 122 % of control, the T/C (dose: 21.0 mg/kg/injection, schedule: Q01DX Z (ip), vehicle: saline) was 114 % of control and the T/C (dose: 30.0 mg/kg/injection, schedule: Q01DX015 (ip), vehicle: saline) was 106 % of control. For the same compound, the T/C (dose: 40.0 mg/kg/injection, schedule: Q01DX001 (ip), vehicle: saline) was 169 % of control.

In the case of `O=C1OCC/C1=C/OCCCCCCCCCCO/C=C1\CCOC1=O`, the T/C [3] is reported as 91 % of control, the T/C [4] is reported as 91 % of control and the T/C [5] is reported as 94 % of control.

With `O=C(/C=C/c1ccccc1)OCc1ccccc1CN1C=CON1` the T/C (dose: 25.0 mg/kg/injection, schedule: Q04DX002 (ip), vehicle: Klucel (hydroxypropylcellulose) (HPC)) was 115 % of control, the T/C (dose: 50.0 mg/kg/injection, schedule: Q04DX002 (ip), vehicle: Klucel (hydroxypropylcellulose) (HPC)) was 105 % of control and the T/C [3] was 105 % of control.

`CN(C)/N=C/c1ccc[n+](C)c1` was tested, and the T/C (dose: 6.25 mg/kg/injection, schedule: Q01DX009 (ip), vehicle: saline) was 113 % of control, the T/C (dose: 12.5 mg/kg/injection, schedule: Q01DX009 (ip), vehicle: saline) was 109 % of control and the T/C (dose: 25.0 mg/kg/injection, schedule: Q01DX009 (ip), vehicle: saline) was 98 % of control and 110 % of control.

In the case of `OCC12C=CC(CC1)CC2`, the T/C (dose: 75.0 mg/kg/injection, schedule: Q04DX002 (ip), vehicle: gum acacia) is reported as 92 % of control, the T/C (dose: 150.0 mg/kg/injection, schedule: Q04DX002 (ip), vehicle: gum acacia) is reported as 100 % of control and the T/C (dose: 300.0 mg/kg/injection, schedule: Q04DX002 (ip), vehicle: gum acacia) is reported as 92 % of control.

For `Nc1ncnc(N)c1NC(=O)c1ccc(Cl)cc1`, the T/C (dose: 25.0 mg/kg/injection, schedule: Q01DX001 (ip), vehicle: saline with Tween-80) was 107 % of control, the T/C (dose: 50.0 mg/kg/injection, schedule: Q01DX001 (ip), vehicle: saline with Tween-80) was 104 % of control and the T/C (dose: 100.0 mg/kg/injection, schedule: Q01DX001 (ip), vehicle: saline with Tween-80) was 120 % of control.

`CC(C)/C=C/C1(C(C)C)C(=O)NC(=O)NC1=O` was tested, and the T/C (dose: 75.0 mg/kg/injection, schedule: Q01DX001 (ip), vehicle: carboxymethylcellulose (CMC)) was 94 % of control and the T/C (dose: 150.0 mg/kg/injection, schedule: Q01DX001 (ip), vehicle: carboxymethylcellulose (CMC)) was 94 % of control.

`CC(=O)c1cccnc1` was tested, and the T/C (dose: 50.0 mg/kg/injection, schedule: Q01DX001 (ip), vehicle: saline) was 104 % of control, the T/C [6] was 91 % of control and the T/C [7] was 93 % of control.

In the case of `CCOC(=O)NC(=S)Nc1ccccc1NC(=S)NC(=O)OCC`, the T/C (dose: 100.0 mg/kg/injection, schedule: Q04DX003 (ip), vehicle: gum acacia) is reported as 97 % of control, the T/C (dose: 200.0 mg/kg/injection, schedule: Q04DX003 (ip), vehicle: gum acacia) is reported as 97 % of control and the T/C (dose: 400.0 mg/kg/injection, schedule: Q04DX003 (ip), vehicle: gum acacia) is reported as 94 % of control.

With `NC(CSCc1ccccc1)C(=O)OCc1ccccc1` (stereo not given) the T/C [8] was 98 % of control, the T/C [9] was 100 % of control and the T/C [10] was 92 % of control. For the same compound, the T/C (dose: 200.0 mg/kg/injection, schedule: Q04DX003 (ip), vehicle: Klucel (hydroxypropylcellulose) (HPC)) was 89 % of control, the T/C [11] was 95 % of control and the T/C (dose: 400.0 mg/kg/injection, schedule: Q04DX003 (ip), vehicle: Klucel (hydroxypropylcellulose) (HPC)) was 96 % of control.

For `O=C(Nc1nccs1)c1cccc(F)c1`, the T/C [8] was 104 % of control, the T/C [10] was 110 % of control and the T/C [11] was 112 % of control.

In the case of `Cc1ccc(NC(=O)COc2ccccc2)c(C)c1`, the T/C [3] is reported as 107 % of control, the T/C [4] is reported as 104 % of control and the T/C [5] is reported as 100 % of control.

In the case of `CC(=O)Oc1ccc(NC(=O)c2ccccc2)c2ccccc12`, the T/C [12] is reported as 110 % of control, the T/C [13] is reported as 100 % of control and the T/C [14] is reported as 94 % of control.

`COc1c(NC(=O)Nc2ccccc2C)cccc1[N+](=O)[O-]` was tested, and the T/C (dose: 6.25 mg/kg/injection, schedule: Q01DX009 (ip), vehicle: saline with Tween-80) was 100 % of control, the T/C (dose: 6.25 mg/kg/injection, schedule: Q04DX002 (ip), vehicle: saline with Tween-80) was 96 % of control and the T/C (dose: 12.5 mg/kg/injection, schedule: Q01DX009 (ip), vehicle: saline with Tween-80) was 92 % of control. For the same compound, the T/C (dose: 12.5 mg/kg/injection, schedule: Q04DX002 (ip), vehicle: saline with Tween-80) was 93 % of control, the T/C (dose: 25.0 mg/kg/injection, schedule: Q01DX009 (ip), vehicle: saline with Tween-80) was 88 % of control and the T/C (dose: 25.0 mg/kg/injection, schedule: Q04DX002 (ip), vehicle: saline with Tween-80) was 100 % of control.

With `C=CCOCC(O)CN(C)CCCCCCCCCCCC` (stereo not given) the T/C (dose: 6.0 mg/kg/injection, schedule: Q04DX003 (ip), vehicle: Klucel (hydroxypropylcellulose) (HPC)) was 98 % of control, the T/C (dose: 12.0 mg/kg/injection, schedule: Q04DX003 (ip), vehicle: Klucel (hydroxypropylcellulose) (HPC)) was 96 % of control and the T/C (dose: 25.0 mg/kg/injection, schedule: Q01DX009 (ip), vehicle: Klucel (hydroxypropylcellulose) (HPC)) was 109 % of control. The T/C (dose: 25.0 mg/kg/injection, schedule: Q04DX003 (ip), vehicle: Klucel (hydroxypropylcellulose) (HPC)) was 93 % of control and 96 % of control, the T/C (dose: 50.0 mg/kg/injection, schedule: Q01DX009 (ip), vehicle: Klucel (hydroxypropylcellulose) (HPC)) was 109 % of control and the T/C [9] was 96 % of control.

In the case of `Cc1ccc(C(O)(c2ccccc2)c2ccccc2C(=O)Nc2ccccc2)cc1` (stereo not given), the T/C [1] is reported as 95 % of control, the T/C [2] is reported as 90 % of control and the T/C (dose: 400.0 mg/kg/injection, schedule: Q01DX009 (ip), vehicle: saline with Tween-80) is reported as 92 % of control.

For `Nc1nc2c(c(=O)[nH]1)N(CC(=O)O)C(CNc1ccc(C(=O)NC(CCC(=O)O)C(=O)O)cc1)CN2` (stereo not given), the T/C (dose: 100.0 mg/kg/injection, schedule: Q01DX001 (ip), vehicle: alkali diluted with saline) was 94 % of control, the T/C (dose: 200.0 mg/kg/injection, schedule: Q01DX001 (ip), vehicle: alkali diluted with saline) was 93 % of control and the T/C (dose: 400.0 mg/kg/injection, schedule: Q01DX001 (ip), vehicle: alkali diluted with saline) was 96 % of control.

In the case of `CCCCCCCCCCCCC1C2CCCCC2C2CCCCC12` (stereo not given), the T/C [6] is reported as 92 % of control, the T/C [7] is reported as 92 % of control and the T/C (dose: 400.0 mg/kg/injection, schedule: Q01DX001 (ip), vehicle: saline) is reported as 92 % of control.

`CC(=O)Nc1c(Cl)c(Cl)c2c(c1Cl)C(=O)c1cc(Cl)ccc1-2` was tested, and the T/C [12] was 92 % of control, the T/C (dose: 100.0 mg/kg/injection, schedule: Q01DX Z (ip), vehicle: carboxymethylcellulose (CMC)) was 102 % of control and the T/C [13] was 90 % of control. The T/C (dose: 200.0 mg/kg/injection, schedule: Q01DX Z (ip), vehicle: carboxymethylcellulose (CMC)) was 98 % of control, the T/C [14] was 95 % of control and the T/C (dose: 400.0 mg/kg/injection, schedule: Q01DX Z (ip), vehicle: carboxymethylcellulose (CMC)) was 98 % of control. The T/C (dose: 800.0 mg/kg/injection, schedule: Q01DX Z (ip), vehicle: carboxymethylcellulose (CMC)) was 102 % of control.

With `CCOC(=O)/C=C1\NC(=O)N(CCCN2C(=O)N/C(=C\C(=O)OCC)C2=O)C1=O` the T/C [1] was 97 % of control.
